The values below are quoted from earlier work in patent US6586005B1, “Extended release formulation of etodolac” (Ranbaxy Laboratories Limited, priority 1999, dated 2003).

As to `CCc1cccc2c3c([nH]c12)C(CC)(CC(=O)O)OCC3` (centres unmarked) [Etodolac, 1,8-diethyl-1,3,4,9-tetrahydropyrano [3,4-b] indole-1-acetic acid], under “pH 5 versus pH 7”, the “Difference between solubility at pH 5 to pH 7” value is given as “thirty”. In addition, the Aqueous solubility result (pH independent below pH 3) is “very low aqueous solubility”.
